How the values were obtained:
[1] = system: p-tau (phosphorylated tau protein at Ser202, Thr205 residues); test: p-tau (AT8) expression in cultured cortical neurons under oxidative stress; type: cell-based, mouse; parameters: key to Reduction of the % of p-tau+ somas: a favorable response, synonymous with a decrease in the number of p-tau+ cell bodies; ++: a favorable response, synonymous with a decrease in the number of p-tau+ cell bodies; +++=reference level; an unfavorable response is represented by a sign “−”, synonymous with an elevation of the number of p-tau+ cell bodies; overexpression of p-tau in cortical cell bodies: dose or concentration left out as unconfirmed
Method: A culture model of cortical neurons from mouse embryonic brain was used, in which neuronal cells were subjected to a maturation step until day in vitro (div) 7, before being gradually exposed to phenol red formulated DMEM/Nutrient mixture F12 Ham supplemented with 20 μg/mL of insulin, and 2 μM of the NMDA receptor blocker MK-801 (DF12i).
Precisely, after 4 days of exposure to DF12i, between 10-15% of surviving neurons show a very strong AT8 immunosignal in their somas while only 1 to 1.5% of neuronal cell bodies are found immunopositive under conditions where oxidative stress is repressed by treatment with bovine apotransferrin (APO; 100 µg/mL, Sigma Aldrich), a glycoprotein with iron chelating properties. Likewise, overexpression of p-tau in cortical cell bodies is reduced by the two non-antibiotic tetracyclines compound of formula (C) ([…]) and compound of formula (Ib) ([…]): see the following Table: […]

[2] = molecular target: T1, alpha-synuclein (Homo sapiens, UniProt P37840); test: alpha-synuclein aggregation, thioflavin T (ThT) fluorescence; type: biochemical
Method: The antiaggregant effect of the compound of formula (Ia) according to the present invention on alpha-synuclein (αS) was evaluated in vitro by measuring the fluorescence intensity of the probe thioflavin T (ThT), a molecule that specifically binds to cross-β structures characteristic of amyloid-like aggregation. The compound of formula (Ia) was dissolved in dimethylsulfoxide to reach a concentration of […]. In this assay, 70 μM of alpha-synuclein was incubated with and without 10 μM, 20 μM and 50 μM of the compound of formula (Ia), under orbital agitation (600 rpm), at 37° C., for 5 days. After the incubation time, Tht was added to each sample and changes in the emission fluorescence spectra (λex=450 and λem=[…]) was monitored using a Horiba Fluoromax CP4 spectrofluorometer.

[3] = system: P. aeruginosa PA01; test: MIC, broth dilution (Example 3); type: cell-based; conditions: Pseudomonas aeruginosa, 18 h at 37° C., MH broth
Method: (§1) Bacterial strains used in this study were: S. aureus (ATCC25923), E. coli (ATCC25922), E. faecalis (ATCC29212) and P. aeruginosa (PA01). Strains were maintained at −80° C. in 15% (v/v) glycerol for cryoprotection. Bacteria were routinely grown in Mueller-Hinton (MH) broth at 37° C.
(§2) The susceptibility of bacterial strains to antibiotics and compounds was determined in microplates using the standard broth dilution method in accordance with the recommendations of the Comité de 1′Antibiogramme de la Société Française de Microbiologie (CA-SFM). (Members of the SFM Antibiogram Committee, R. Int. J. Antimicrob. Agents 2003, 21, 364). Briefly, the Minimal Inhibitory Concentrations (MICs) were determined with an inoculum of 10^5 CFU in 200 μL of MH broth containing two-fold serial dilutions of each drug. […] To determine all MICs, the measurements were independently repeated in triplicate.
(§3) The compound of formula (Ia) according to the invention was tested against clinical isolates Gram-bacteria (P. aeruginosa, E. coli) and Gram+ bacteria (S. aureus, E. faecalis). Minimum inhibitory concentrations (MIC) were tentatively determined and compared to known antibiotic tetracyclines (doxycycline, demeclocycline, chlortetracycline) and to the compound of formula (B) disclosed in Example 1 of the present application. The test was reproduced twice and the average MIC were calculated.

[4] = system: E. coli ATCC 25922; test: MIC, broth dilution (Example 3); type: cell-based; conditions: Escherichia coli, ATCC25922; 18 h at 37° C., MH broth
Method: as §1, §2, §3

[5] = system: E. faecalis ATCC 29212; test: MIC, broth dilution (Example 3); type: cell-based; conditions: Enterococcus faecalis, ATCC29212; 18 h at 37° C., MH broth
Method: as §1, §2, §3

[6] = system: S. aureus ATCC 25923; test: MIC, broth dilution (Example 3); type: cell-based
Method: as §1, §2, §3

[7] = molecular target: T1, alpha-synuclein; test: alpha-synuclein fibrils by transmission electron microscopy (TEM); type: biochemical; conditions: 20 μM compound; vs alpha-synuclein alone
Method: By using transmission electron microscopy (TEM) we studied the alpha-synuclein aggregation in the presence of 20 μM of the compound of formula (Ia) in the same condition described above. For the samples mounting, 5 μL of a 7 μM alpha-synuclein solution were adsorbed onto a formvar carbon film coated copper grids (Electron Microscopy Sciences) and stained with uranyless.

Row | SMILES | overexpression of p-tau in cortical cell bodies [1] | Reduction of the % of p-tau+ somas ([1]; compounds 3 μM, APO 100 μg/mL, mouse cortical cultures exposed div 7-11 to DF12i) | Anti aggregant activity at 20 μM [2] | MIC [3] [µM] | MIC [4] [µM] | MIC [5] [µM] | activity on S. aureus compared with compound of formula (B) [6] | MIC ([6]; Staphylococcus aureus, ATCC25923, 18 h at 37° C., MH broth) [µM] | amount of alpha-synuclein fibril (TEM) [7] | inhibition of alpha-synuclein aggregation (ThT fluorescence) ([2]; 10 μM, 20 μM and 50 μM compound, 70 μM alpha-synuclein, 37° C., 5 days, vs control, dose dependent)
1 | NC(=O)C1=C(O)CC2CC3C(=C(O)C2C1=O)C(=O)c1c(O)ccc(Cl)c1[C@H]3O (some centres unmarked) [Compound of formula (C)] | reduced | +++ | yes | – | – | – | – | – | – | –
2 | C[C@H]1c2cccc(O)c2C(=O)C2=C(O)C3C(=O)C(C(N)=O)=C(O)C[C@@H]3[C@@H](O)[C@@H]21 (stereo partly drawn) [Compound of formula (Ia), (4aS,5R,5aR,6R)-3,5,10,12-tetrahydroxy-6-methyl-1,11-dioxo-1,4,4a,5,5a,6,11,12a-octahydrotetracene-2-carboxamide] | – | – | yes | > 200 | > 200 | > 200 | less active | > 200 | clearly decreases | significantly inhibits
